Experimental data taken from the NIST ThermoML archive (doi:10.1021/je400101s).

Assay: mn = molality of the nth substance listed, in mol/kg
Conditions: 101 kPa, Liquid; for electrical conductivity: METLER TOLEDO SevenEasyTM conductivity meter

CCCC[P+](CC)(CCCC)CCCC.[Br-] [ethyltributylphosphonium bromide] + O
Conditions | electrical conductivity, 298.15 K [S/m] | electrical conductivity, 303.15 K [S/m] | electrical conductivity, 308.15 K [S/m] | mass density, 298.15 K [kg/m3] | mass density, 303.15 K [kg/m3] | mass density, 308.15 K [kg/m3] | viscosity, 298.15 K [mPa·s] | viscosity, 303.15 K [mPa·s] | viscosity, 308.15 K [mPa·s]
m1 = 0.5002 | 1.77 | 1.83 | 1.89 | 1010.54 | 1008.66 | 1006.6 | 1.404 | 1.225 | 1.084
m1 = 0.7497 | 2.04 | 2.14 | 2.21 | 1016.07 | 1013.98 | 1011.69 | 1.801 | 1.589 | 1.426
m1 = 1 | 2.21 | 2.33 | 2.41 | 1021.34 | 1018.99 | 1016.49 | 2.006 | 1.742 | 1.524
m1 = 1.995 | 2.35 | 2.49 | 2.63 | 1038.07 | 1034.94 | 1031.74 | 3.177 | 2.633 | 2.19
m1 = 3.001 | 2.2 | 2.36 | 2.55 | 1048.55 | 1045.08 | 1041.59 | 4.806 | 3.978 | 3.331
m1 = 4 | 2.03 | 2.21 | 2.42 | 1055.26 | 1051.66 | 1048.01 | 6.391 | 5.291 | 4.447
m1 = 4.997 | 1.87 | 2.05 | 2.25 | 1060.4 | 1056.71 | 1053 | 7.976 | 6.54 | 5.441
m1 = 5.998 | 1.72 | 1.9 | 2.11 | 1064.15 | 1060.43 | 1056.66 | 9.681 | 7.852 | 6.459
m1 = 6.501 | 1.65 | 1.85 | 2.06 | 1065.49 | 1062.17 | 1058.22 | 10.62 | 8.579 | 7.005
m1 = 6.984 | 1.58 | 1.78 | 1.98 | 1066.91 | 1063.18 | 1059.41 | 11.58 | 9.33 | 7.561
m1 = 8.001 | – | – | – | 1069.18 | 1065.46 | 1061.69 | – | – | –
m1 = 8.994 | – | – | – | 1070.97 | 1067.25 | 1063.49 | – | – | –

CCCC[P+](CCCC)(CCCC)CCCC.[Br-] [tetrabutylphosphonium bromide] + O
Conditions | electrical conductivity, 298.15 K [S/m] | electrical conductivity, 303.15 K [S/m] | electrical conductivity, 308.15 K [S/m] | mass density, 298.15 K [kg/m3] | mass density, 303.15 K [kg/m3] | mass density, 308.15 K [kg/m3] | viscosity, 298.15 K [mPa·s] | viscosity, 303.15 K [mPa·s] | viscosity, 308.15 K [mPa·s]
m1 = 0.4996 | 1.61 | 1.65 | 1.72 | 1008.5 | 1006.58 | 1004.44 | 1.483 | 1.282 | 1.142
m1 = 0.7513 | 1.81 | 1.89 | 1.99 | 1013.67 | 1011.4 | 1008.98 | 1.871 | 1.677 | 1.469
m1 = 0.9998 | 1.93 | 2.03 | 2.15 | 1017.95 | 1015.41 | 1012.75 | 2.246 | 1.915 | 1.66
m1 = 1.999 | 1.97 | 2.08 | 2.251 | 1030.09 | 1026.84 | 1023.52 | 3.875 | 3.1 | 2.61
m1 = 2.999 | 1.84 | 1.95 | 2.13 | 1037.03 | 1033.51 | 1029.96 | 5.641 | 4.589 | 3.839
m1 = 4.004 | 1.69 | 1.81 | 2 | 1041.4 | 1037.76 | 1034.07 | 7.374 | 6.059 | 5.037
m1 = 4.994 | 1.54 | 1.66 | 1.85 | 1044.28 | 1040.58 | 1036.87 | 9.03 | 7.403 | 6.085
m1 = 6.002 | 1.43 | 1.54 | 1.73 | 1046.66 | 1042.92 | 1039.15 | 10.65 | 8.71 | 7.101
m1 = 6.503 | 1.4 | 1.51 | 1.68 | 1047.29 | 1043.96 | 1039.91 | 11.46 | 9.333 | 7.618
m1 = 7.006 | 1.33 | 1.44 | 1.61 | 1048.18 | 1044.43 | 1040.68 | 12.29 | 9.946 | 8.17
m1 = 8 | – | – | – | 1049.41 | 1045.66 | 1041.87 | – | – | –
m1 = 8.996 | – | – | – | 1050.43 | 1046.7 | 1042.93 | – | – | –
